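Growth conditions: 96-well plates. Treatment: test compound, 48 hours, 5 concentrations. Analysis: linear interpolation between bracketing concentrations; unreached endpoints set to highest concentration. The concentration for 50% growth inhibition is given as GI50.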 Active and inactive are the calls of the source. Cut-off read from the data, not from the text of the source: active = GI50 up to about 1.1 µM and inactive = higher.
Legend:
Assay in all cases: growth of human tumour cells (NCI), 48 h
UACC-257 = system: UACC-257
SF-268 = system: SF-268
NCI-H460 = system: NCI-H460
DU-145 = system: DU-145
KM12 = system: KM12
TK-10 = system: TK-10
MDA-MB-231 = system: MDA-MB-231
SW-620 = system: SW-620
MDA-MB-435 = system: MDA-MB-435
COLO 205 = system: COLO 205
IGROV-1 = system: IGROV-1
NCI-H23 = system: NCI-H23
SF-295 = system: SF-295
HOP-62 = system: HOP-62
BT-549 = system: BT-549
SNB-19 = system: SNB-19
RXF 393 = system: RXF 393
OVCAR-8 = system: OVCAR-8
RPMI-8226 = system: RPMI-8226
Malme-3M = system: Malme-3M

Measured: GI50

O=C(O)c1cc(NCc2cc(O)ccc2O)ccc1O [LAVENDUSTIN C]
inactive: UACC-257 > 100 µM | SF-268 > 100 µM | NCI-H460 > 100 µM | DU-145 > 100 µM | KM12 > 100 µM | TK-10 > 100 µM | MDA-MB-231 > 100 µM | SW-620 23.8 µM | MDA-MB-435 27 µM | COLO 205 > 100 µM | IGROV-1 > 100 µM | NCI-H23 > 100 µM | SF-295 > 100 µM | HOP-62 > 100 µM | BT-549 > 100 µM | SNB-19 > 100 µM | RXF 393 > 100 µM

O=C1CCCC2=C1CC1=C(CCCC1=O)N2c1ccccc1C(=O)O
inactive: SF-268 > 100 µM | NCI-H460 > 100 µM | KM12 > 100 µM | TK-10 > 100 µM | SW-620 > 100 µM | OVCAR-8 > 100 µM | RPMI-8226 > 100 µM | IGROV-1 > 100 µM | NCI-H23 > 100 µM | BT-549 > 100 µM | SNB-19 > 100 µM | RXF 393 > 100 µM

CNC(=O)O/N=C1\N(C)CN(c2ccccc2)C12CCN(CCCC(=O)c1ccc(F)cc1)CC2
inactive: Malme-3M 32.7 µM | UACC-257 20.1 µM | SF-268 > 100 µM | NCI-H460 44.1 µM | DU-145 > 100 µM | KM12 27.7 µM | TK-10 79.4 µM | MDA-MB-231 33.5 µM | SW-620 > 100 µM | MDA-MB-435 45.9 µM | COLO 205 18.2 µM | OVCAR-8 > 100 µM | RPMI-8226 > 100 µM | IGROV-1 46.8 µM | NCI-H23 > 100 µM | SF-295 > 100 µM | HOP-62 39.4 µM | SNB-19 > 100 µM | RXF 393 83.6 µM

Oc1c(Cl)cc2cc1-c1cc(cc(Cl)c1O)CCc1c(cc(Cl)c(O)c1Cl)-c1cc(Cl)c(c(Cl)c1O)/C=C\2
inactive: UACC-257 13.6 µM | SF-268 8.43 µM | NCI-H460 4.42 µM | DU-145 9.18 µM | KM12 7.76 µM | SW-620 9.44 µM | MDA-MB-435 8.02 µM | COLO 205 8.24 µM | OVCAR-8 7.91 µM | RPMI-8226 22.1 µM | IGROV-1 8.99 µM | NCI-H23 13.3 µM | HOP-62 7.74 µM | BT-549 16 µM | SNB-19 11.6 µM | RXF 393 15.2 µM

CC(O)C(O)C(O)C(/C=N\Nc1ccccc1)=N/Nc1ccccc1 (configuration not stated)
inactive: Malme-3M 20 µM | SF-268 10.2 µM | NCI-H460 10.7 µM | DU-145 15.1 µM | KM12 4.7 µM | TK-10 12.6 µM | MDA-MB-231 12.3 µM | SW-620 11.6 µM | MDA-MB-435 13.4 µM | COLO 205 14.3 µM | OVCAR-8 13.2 µM | RPMI-8226 18.3 µM | IGROV-1 8.49 µM | NCI-H23 11.9 µM | SF-295 11.6 µM | HOP-62 14.4 µM | BT-549 13.7 µM | SNB-19 15.7 µM

Nc1ncc2ncn(C3CCC(CO)O3)c2n1 (configuration not stated)
inactive: UACC-257 > 100 µM | SF-268 > 100 µM | NCI-H460 > 100 µM | DU-145 > 100 µM | KM12 > 100 µM | TK-10 > 100 µM | MDA-MB-231 > 100 µM | SW-620 > 100 µM | MDA-MB-435 > 100 µM | COLO 205 > 100 µM | OVCAR-8 > 100 µM | RPMI-8226 > 100 µM | IGROV-1 > 100 µM | NCI-H23 > 100 µM | SF-295 > 100 µM | HOP-62 > 100 µM | BT-549 > 100 µM | SNB-19 > 100 µM

COc1ccc(COCCOCc2nc(C#N)c(N)o2)cc1
inactive: UACC-257 > 100 µM | SF-268 > 100 µM | NCI-H460 > 100 µM | DU-145 > 100 µM | KM12 > 100 µM | TK-10 > 100 µM | MDA-MB-231 > 100 µM | SW-620 > 100 µM | MDA-MB-435 > 100 µM | COLO 205 > 100 µM | OVCAR-8 > 100 µM | RPMI-8226 > 100 µM | IGROV-1 > 100 µM | NCI-H23 > 100 µM | SF-295 > 100 µM | HOP-62 > 100 µM | BT-549 > 100 µM | RXF 393 > 100 µM

CC(=O)c1c2c(cc3c1CCC3)CCC2
inactive: Malme-3M > 100 µM | UACC-257 > 100 µM | SF-268 > 100 µM | NCI-H460 > 100 µM | DU-145 > 100 µM | KM12 > 100 µM | TK-10 49 µM | MDA-MB-231 > 100 µM | SW-620 > 100 µM | MDA-MB-435 > 100 µM | COLO 205 > 100 µM | OVCAR-8 > 100 µM | RPMI-8226 76 µM | IGROV-1 > 100 µM | NCI-H23 > 100 µM | SF-295 > 100 µM | HOP-62 > 100 µM | BT-549 > 100 µM | SNB-19 > 100 µM
